US8309766B2 (Obschestvo S. Organichennoi Otvetstvennostiyu …, priority 2005, dated 2012)

Assays:
[1] = tested on: "acetic contortions" in mice; experiment: Effect on analgetic action of Tramal and Analgin on the model "acetic contortions"; assay type: in vivo, white mongrel mice
Description: The tests were conducted on males of white mongrel mice weighing 22-24 grams. The specific pain response (“contortions”) were elicited by intraperitoneal administration to mice of 0.75% acetic acid solution. The following signs were taken into consideration: the number of seizure contractions of abdominal muscles accompanied by stretching the hind limbs and sagging the back. Analgetic effect was assessed by decrease in the number of contortions in animals in percent to the control for 15 minutes post administration of acetic acid. The technique of the tests is disclosed in Koster R., Anderson M., de Beer B.//Fed. Proc. 1959. V. 18. P. 412. Compounds under testing were administered intraperitoneally (using a probe) at a dose 10 μg/kg 60 minutes prior to injection of the acid. Diclofenac (10 mg/kg) was used as a reference drug. Analgetic effect was calculated according to the formula: […]
The studies were carried out in accordance with the technique presented in Example 18.

[2] = tested on: carrageenan edema of rat paw; experiment: Carrageenan edema of rat paw; assay type: in vivo, outbreed white rats; conditions: rats; 1% ointment; 4 hours post carrageenan
Description: The tests were conducted on males of outbreed white rats weighing 250-270 grams. The model of carrageenan edema was used which model is described in Winter et al. In: DeRosa M., Giroud J. P. Willoughby D. A. Studies of the mediators of acute inflammatory response induced in rats in different sites by carrageenan and turpentine.//J. Pharmacol. 1971. V. 104. P. 15-29.
0.1 ml 1% carrageenan solution (SERVA) was subplantarly injected into a right paw of rats. The animals were placed into individual chambers. […] Paw volume was measured using a pletismometer (Ugo Besile) at 4 hours post carrageenan administration. Therapeutic effect of the ointment was assessed by the inhibition degree of inflammatory reaction as compared to an intact left paw of the given animal and to a paw reaction of a control (untreated) group of rats. Inhibition of inflammatory reaction expressed in percent was calculated according to the formula: […]

rat uterine horn's SMP = experiment: Serotonin-induced contracture of rat uterine horn smooth muscle preparation; design: species or system Wistar rats; conditions: for Inhibition of contractions of the rat uterine horn's SMP, % / Rate of contractions of the rat uterine horn's SMP during 5 minutes: serotonin 10^−5 M; for Rate of contractions of the rat uterine horn's SMP during 5 minutes: control 9
Description: The model of serotonin-induced soft muscular contracture of an uterine horn [Blattner H. G., Dehnert H. et al. Experiments on isolated smooth muscle preparation. Ed. J. M. Barnden and R. Colson, 1980] was created on females of Wistar rats weighing 300-350 grams. A prepared smooth muscle preparation (SMP) was placed into a thermo-regulated chamber (+37° C.) containing Tirode solution with lowered calcium content in order to prevent spontaneous contractive activity of the smooth muscle preparation. Contraction of the uterine horn was recorded using the mechanotron 6M×2B connected to the polygraph KPS-4; initial load to the object was 0.5-0.7 grams.
Contracture of the SMP was induced by introduction into incubation medium of 0.1 ml serotonin (Sigma) at concentration 10^−5 M. 30-60 seconds post administration of the mediator, a peak contraction amplitude of the uterine horn was recorded. Compound IX was introduced into the chamber at the peak amplitude of contractions or under conditions of incubation (within the same range of concentrations) for 15 minutes.
The effect of compound IX being tested was assessed by a number of contractions and by lowering the amplitude value.

mice, forced swimming = experiment: "Behavioral despair" test according to Porsolt; assay type: in vivo; conditions: 50 mg/kg orally
Description: The “behavioral despair” test according to Porsolt [R. D. Porsolt, A. Bertin and M. Jalfre.//in mice: A primary Screening Test for Antidepressants. Arch. Int. Pharmacodyn., 1977, 229, p. 327-336] is a predictive test for drugs with antidepressant action.
Stress state in mice (weighing 27-30 grams) is induced by forced swimming. Animals are placed into a cylinder (height 25 cm, diameter 10 cm) filled to ⅓ with water at temperature 21-23° C. The animals cannot escape from the cylinder by themselves. Following a short time of activity the animals develop a so called “behavioral depression” characterized by hovering of animals, immobilization duration of which can be fixed. The experiment is carried out in two days. One a first day, animals are placed into the cylinder for 15 minutes (pre-test). After removal from water, the animals are dried and preparations under testing are administered. At 24 hours, the preparations are administered again and one hour later the animals are placed into the cylinder for 6 minutes. During first two minutes the animals are actively swimming; during the subsequent four minutes, behavioral depression develops manifested by immobilization (hovering) which is fixed for 4 minutes and is measure in seconds. Compound IX and the reference antidepressant drug Fluoxetin were administered orally at a dose 50 mg/kg.

[3] = IX 10 mg/kg alone (Analgin study)
[4] = added at the peak serotonin-induced contracture

SMILES: O=C(CCc1ccc(O)cc1)NCCc1ccccc1 [Compound IX, 3-(p-hydroxyphenyl)-propionylphenylethylamine]
- Analgetic effect, % [1, 3]: 43.3%
- Number of contortions for 15 minutes, M ± m [1, 3]: 18.8 ± 3.1
- Analgetic effect, % ([1]; IX 10 mg/kg, Tramal 10 mg/kg, alone or combined): 33.6%
- Edema inhibition (%) [2]: 53.1%
- Paw volume gain (%) [2]: 32.9%
- Inhibition of contractions of the rat uterine horn's SMP, % (rat uterine horn's SMP; [4]): 44.4%
- Rate of contractions of the rat uterine horn's SMP during 5 minutes (rat uterine horn's SMP; [4]): 5
- SMP contracture after the slowed contractions (rat uterine horn's SMP; pre-incubation conditions): complete blockade
- Inhibition of contractions of the rat uterine horn's SMP, % (rat uterine horn's SMP; pre-incubation for 15 minutes): 55.6%
- Rate of contractions of the rat uterine horn's SMP during 5 minutes (rat uterine horn's SMP; pre-incubation for 15 minutes): 4
- % change from the control (mice, forced swimming): −21%
- immobilization time, M ± m (mice, forced swimming; fixed for 4 minutes, control 195.0 ± 10.3): 154.0 ± 11.7 s
